[invAb] = inverted abasic unit; d = 2'-deoxy (DNA); m = 2'-O-methyl; r = 2'-OH (RNA); f = 2'-fluoro
Experiments:
[1] = test system: Bach1 mRNA; assay: Initial screen: Bach1 mRNA knock-down in mouse NIH 3T3 cells (96-well transfection, quantitative RT-PCR); assay type: cell-based; conditions: mouse NIH3T3 cells, n = 2, 24 hrs post-transfection, protocol 10 nM siNA
Method: (§1) All cells were obtained from ATCC (Manassas, Va.) unless otherwise indicated. Cells were grown and transfected under standard conditions, which are detailed below for each cell line.
(§2) Cells were plated in all wells of a tissue-culture treated, 96-well plate at a final count of 5000 cells/well in 100 μL of the appropriate culture media. The cells were cultured for 24 hours after plating at 37° C. in the presence of 5% CO2.
(§3) After 24 hours, complexes containing siNA and RNAiMax were created as follows: A solution of RNAiMax diluted 33-fold in OPTI-MEM was prepared. […] After incubation of RNAiMax/OPTI-MEM solution at room temperature for 5 min, an equal volume of the siNA solution and the RNAiMax solution were added together for each of the siNAs.
(§4) This solution was incubated at room temperature for 20 minutes. After incubation, 20 uL of the solution was added to each of the relevant wells. The final concentration of siNA in each well was 10 nM and the final volume of RNAiMax in each well was 0.3 ul. […]
(§5) Briefly, a 60 uL (1 plate) or 110 uL (2 plates) of the Lysis Solution with DNase I was dispensed into each well of the Lysis Buffer Plate (twin.tec full skirt plate). The lysis buffer and stop plates were stored at 4° C. until the cells were washed.
(§6) The plate was spun at 1100 rpm for 5 minutes. The culture medium was aspirated and discarded from the wells of the culture plate. The lysis was performed automatically using a BioMek FX instrument and method. After the Biomek method was completed, the lysis plate was incubated for 2 min at room temperature. The lysis plate can be stored for 2 hours at 4° C., or at −20° C. or −80° C. for two months.
(§7) Each well of the reverse transcription plate required 10 uL of 2× reverse transcriptase Buffer, 1 uL of 20× reverse transcription enzyme and 2 uL of nuclease-free water. The reverse transcription master mix was prepared by mixing 2× reverse transcription buffer, 20× reverse transcription enzyme mix, and nuclease-free water. 13 uL of the reverse transcription master mix was dispensed into each well of the reverse transcription plate (semi-skirted). A separate reverse transcription plate was prepared for each cell plate. The plate was loaded onto a Biomek NX or Biomek FX Dual −96 and the Biomek method was run. The program is programmed to automatically added 7 uL of lysate from the cell lysis procedure described above into each well of the reverse transcription plate. The plate is sealed and spun on a centrifuge (1000 rpm for 30 seconds) to settle the contents to the bottom of the reverse transcription plate. The plate is placed in a thermocycler at 37° C. for 60 min, 95° C. for 5 min, and 4° C. until the plate is removed from the thermocycler. Upon removal, if not used immediately, the plate was frozen at −20° C.
(§8) A series of probes and primers were used to detect the various mRNA transcripts of the genes of Bach1, HMOX-1, and GAPDH in mouse and human cell lines. The assays were performed on an ABI 7900 instrument, according to the manufacturer's instructions. […] The PCR reactions were carried out at 50° C. for 2 min, 95° C. for 20 min followed by 40 cycles at 95° C. for 15 secs and 60° C. for 1 min
(§9) Within each experiment, the […] was set in the exponential phase of the amplification curve, and based on the intersection point of the baselines with the amplification curve, a Ct value was assigned by the instrument.
(§10) The expression level of the gene of interest and % knock-down was calculated using Comparative Ct method:
(§11) ΔCt=ΔCt(Target siRNA)−ΔCt(NTC)
(§12) Relative expression level=2^−ΔΔCt
(§13) The non-targeting control siNA was, unless otherwise indicated, chosen as the value against which to calculate the % knock-down, because it is the most relevant control.

[2] = test system: Bach1 mRNA; assay: Initial screen: Bach1 mRNA knock-down in human A549 cells (96-well transfection, quantitative RT-PCR); assay type: cell-based; conditions: Bach1 mRNA, 10 nM siNA, human A549 cells, n = 2, mean ± S.D., normalized to GAPDH and non-targeting control, 24 hrs post-transfection
Method: as §1, §2, §3, §4, §5, §6, §7, §8, §9, §10, §11, §12, §13

Substance	% KD [1]	% KD [2]
29975-DC: Bach1 siNA duplex, target site 1893 (mouse); sense B GucGcAAGAGGAAAcuuGA TTB (SEQ 99); antisense UCAAGuuuccucuuGcGAcUU (SEQ 100) (sense GUCGCAAGAGGAAACUUGATT; antisense UCAAGUUUCCUCUUGCGACUU; sense: DNA at AGT, 2'-fluoro at CU, [invAb] at 5' end, 3' end, backbone not given here; antisense: sugars from the 5' end rrrmmfffffffffmfmmfmm, backbone not given here)	40.4 ± 0.4%	59 ± 8.3%
29976-DC: Bach1 siNA duplex, target site 1585 (mouse); sense B cuGcucAAGcAAcuuGGAA TTB (SEQ 101); antisense UUCcAAGuuGcuuGAGcAGUU (SEQ 102) (sense CUGCUCAAGCAACUUGGAATT; antisense UUCCAAGUUGCUUGAGCAGUU; sense: DNA at AGT, 2'-fluoro at CU, [invAb] at 5' end, 3' end, backbone not given here; antisense: sugars from the 5' end rrrfmmmffmfffmmmfmmmm, backbone not given here)	−1.2 ± 11.6%	17.5 ± 1.7%
29977-DC: Bach1 siNA duplex, target site 1640 (mouse); sense B GAGccuuGcccGuAuGcuu TTB (SEQ 103); antisense AAGcAuAcGGGcAAGGcucUU (SEQ 104) (sense GAGCCUUGCCCGUAUGCUUTT; antisense AAGCAUACGGGCAAGGCUCUU; sense: DNA at AGT, 2'-fluoro at CU, [invAb] at 5' end, 3' end, backbone not given here; antisense: sugars from the 5' end rrrfmfmfmmmfmmmmfffmm, backbone not given here)	53 ± 2.9%	18.9 ± 0.3%
29978-DC: Bach1 siNA duplex, target site 403 (mouse); sense B GGuuAAAGGAuuuGAAccu TTB (SEQ 105); antisense AGGuucAAAuccuuuAAccUU (SEQ 106) (sense GGUUAAAGGAUUUGAACCUTT; antisense AGGUUCAAAUCCUUUAACCUU; sense: DNA at AGT, 2'-fluoro at CU, [invAb] at 5' end, 3' end, backbone not given here; antisense: sugars from the 5' end rrrfffmmmffffffmmffmm, backbone not given here)	3.3 ± 3.8%	14.4 ± 0^ %
29979-DC: Bach1 siNA duplex, target site 1523 (mouse); sense B cGGAcuuucAcAAcucucA TTB (SEQ 107); antisense UGAGAGuuGuGAAAGuccGUU (SEQ 108) (sense CGGACUUUCACAACUCUCATT; antisense UGAGAGUUGUGAAAGUCCGUU; sense: DNA at AGT, 2'-fluoro at CU, [invAb] at 5' end, 3' end, backbone not given here; antisense: sugars from the 5' end rrrmmmffmfmmmmmfffmmm, backbone not given here)	62.4 ± 2.6%	−18.1 ± 18^ %
29980-DC: Bach1 siNA duplex, target site 1939 (mouse); sense B cGAGAAGcuGcAAAGuGAA TTB (SEQ 109); antisense UUCAcuuuGcAGcuucucGUU (SEQ 110) (sense CGAGAAGCUGCAAAGUGAATT; antisense UUCACUUUGCAGCUUCUCGUU; sense: DNA at AGT, 2'-fluoro at CU, [invAb] at 5' end, 3' end, backbone not given here; antisense: sugars from the 5' end rrrmffffmfmmffffffmmm, backbone not given here)	49.2 ± 1.1%	91.3 ± 0.9%
29981-DC: Bach1 siNA duplex, target site 331 (mouse); sense B cAGcuAcuuccAcucGAGA TTB (SEQ 111); antisense UCUcGAGuGGAAGuAGcuGUU (SEQ 112) (sense CAGCUACUUCCACUCGAGATT; antisense UCUCGAGUGGAAGUAGCUGUU; sense: DNA at AGT, 2'-fluoro at CU, [invAb] at 5' end, 3' end, backbone not given here; antisense: sugars from the 5' end rrrfmmmfmmmmmfmmffmmm, backbone not given here)	3.5 ± 5%	1 ± 0.9%
29982-DC: Bach1 siNA duplex, target site 1752 (mouse); sense B cAuucAAuGcccAAcGGAu TTB (SEQ 113); antisense AUCcGuuGGGcAuuGAAuGUU (SEQ 114) (sense CAUUCAAUGCCCAACGGAUTT; antisense AUCCGUUGGGCAUUGAAUGUU; sense: DNA at AGT, 2'-fluoro at CU, [invAb] at 5' end, 3' end, backbone not given here; antisense: sugars from the 5' end rrrfmffmmmfmffmmmfmmm, backbone not given here)	9 ± 8.9%	−9.2 ± 4.6%
29983-DC: Bach1 siNA duplex, target site 363; sense B GAuuuGAAccuuuAAuucA TTB (SEQ 115); antisense UGAAuuAAAGGuucAAAucUU (SEQ 116) (sense GAUUUGAACCUUUAAUUCATT; antisense UGAAUUAAAGGUUCAAAUCUU; sense: DNA at AGT, 2'-fluoro at CU, [invAb] at 5' end, 3' end, backbone not given here; antisense: sugars from the 5' end rrrmffmmmmmfffmmmffmm, backbone not given here)	49 ± 2%	74.7 ± 1.8%
29985-DC: Bach1 siNA duplex, target site 1312; sense B AGGcuucuGGAGuGAcAuu TTB (SEQ 119); antisense AAUGucAcuccAGAAGccuUU (SEQ 120) (sense AGGCUUCUGGAGUGACAUUTT; antisense AAUGUCACUCCAGAAGCCUUU; sense: sugars from the 5' end dddfffffddddfrdfdffdd, [invAb] at 5' end, 3' end, backbone not given here; antisense: sugars from the 5' end rrrmffmffffmmmmmfffmm, backbone not given here)	1.3 ± 4.5%	18.6 ± 6.5%
29987-DC: Bach1 siNA duplex, target site 1313; sense B GGcuucuGGAGuGAcAuuu TTB (SEQ 123); antisense AAAuGucAcuccAGAAGccUU (SEQ 124) (sense GGCUUCUGGAGUGACAUUUTT; antisense AAAUGUCACUCCAGAAGCCUU; sense: DNA at AGT, 2'-fluoro at CU, [invAb] at 5' end, 3' end, backbone not given here; antisense: sugars from the 5' end rrrfmffmffffmmmmmffmm, backbone not given here)	−16.1 ± 11.6%	16 ± 0.2%

Reference: patent US20120016010A1, “RNA Interference Mediated Inhibition of BTB and CNC Homology 1, Basic Leucine Zipper Transcription Factor 1 (BACH1) Gene Expression Using Short Interfering Nucleic Acid (siNA)” (Merck Sharp & Dohme Corp, priority 2009, published 2012)
